Like-named read-outs stand apart in the source and are kept apart here.
Tests used:
[1] = target: CacKam (Catenulispora acidiphila, UniProt C7Q5P8); experiment: biochemical; format: binding
[2] = target: CarKam; experiment: isothermal titration calorimetry, single-site fit; format: binding, Candidatus Arthromitus sp. SFB-mouse-NYU; settings: 25 °C, 20 mM Tris pH 7.5, 10 mM magnesium acetate, 250 mM NH4Cl, 10 % glycerol, 6 mM β-mercaptoethanol, no 30S subunit
[3] = target: TcuKam (Thermomonospora curvata, UniProt D1A6K4); experiment: biochemical; format: binding
[4] = target: (UniProt K2DC64); experiment: biochemical

| SMILES | Kd [1] | Kd ([2]; read-out: Kd (μM) / SAH) | Kd [3] | Kd ([2]; read-out: Kd (μM) / SAM) | Kd [4] |
| --- | --- | --- | --- | --- | --- |
| Nc1ncnc2c1ncn2[C@@H]1O[C@H](CSCC[C@H](N)C(=O)O)[C@@H](O)[C@H]1O [SAH] | 2.7 µM | 4.1 µM | 1.9 µM |  |  |
| C[S+](CC[C@H](N)C(=O)O)C[C@H]1O[C@@H](n2cnc3c(N)ncnc32)[C@H](O)[C@@H]1O (stereo partly shown) [SAM] | 44 µM |  | 13 µM | 24 µM | 75 µM |

From publication PMC4122235 (Biochimica et biophysica acta, 2014)
